This note sets out measurements from US20250367117A1, “VITAMIN C-ENCAPSULATED LIPOSOME AND PREPARATION METHOD THEREFOR” (Hankook Liposome Co., Ltd., priority 2022, published 2025).

The nature of the series: Bioavailability after oral administration: blood (serum) vitamin C concentration by HPLC. In kind it is in vivo. The conditions noted are these: male, SD rat, 10 ml(200 mg)/kg. As for the experimental part:
The experimental animals used were SD rats (Samtago BIO KOREA Co., Ltd.), which have anatomical and physiological characteristics similar to humans and have the advantage of being useful as a pharmacokinetic model. The SD rats were male, 7-week-old (240-260 g), and were raised at a temperature of 20-24° C. and a relative humidity of 40-70%, and general symptoms were observed once a day for 5 days before the test. Solid feed for experimental animals (Purina Feed®) was provided, and the rats were allowed to consume it freely. […] As a control group, food vitamin C (purity 99.9%) was used, and the weight was measured and dissolved in purified water to prepare it. […] After putting the test substance into a 3 ml syringe, the zonde for rat oral administration was combined, and the test substance was administrated into the rat. For blood collection, about 300 μl of blood was collected from the jugular vein of all subjects in each group using a disposable syringe (1 ml, 26G, BD Biosciences, USA) at the scheduled time after administration. The blood was placed in a clean, light-shielded 1.5 ml amber tube, allowed to coagulate for 30 minutes at room temperature, and then centrifuged to separate the serum. The oral administration time points were 0, 1, 2, 4, 6, 8, 10, 12, and 24 hours (total of 9 time points). For blood sample separation and analysis, the harvested whole blood was coagulated and centrifuged at 3,000 rpm for 10 minutes using a centrifuge (Micro17R, Hanil, KOR) to separate the serum. Each 100 μl×1 tube was placed in a 1.5 ml Amber tube labeled with the test type, animal number, and blood collection time and stored in an ultra-low temperature freezer (approximately −70° C.). When testing, the stored samples were thawed at room temperature and the blood concentration of vitamin C was analyzed using HPLC (Alliance e2695, Waters, USA). […] For sample processing and analysis, 70 μL of the sample was taken and placed in a microtube, 70 μL of metaphosphoric acid (0.1 g/mL in water) was added, and then mixed using a vortexer for 30 seconds. The mixture was centrifuged at 14,000 rpm for 10 minutes, and the supernatant was transferred to a vial and injected into the HPLC for analysis. Since vitamin C is an endogenous substance, it was used after serum dialysis.

As for `O=C1O[C@H]([C@@H](O)CO)C(O)=C1O` [vitamin C, ascorbic acid], the highest level (Cmax) was 12000 ng/mL and the time of peak concentration (Tmax) (commonly the time from dosing to the highest level) was found to be 7.67 h. Further, under “read-out: AUC0-24 of vitamin C”, the AUC(0-t) was determined as 234 µg·h/mL. For the same compound, the half-life (read-out: T1/2 of vitamin C (converted)) is 27.8 h.
